# According to patent publication US10597392B2, “Tetrahydropyridopyrazines as modulators of GPR6” (Takeda Pharmaceutical Corporation Limited, priority 2014, dated 2020):
# Target: T1, GPR6 receptor expressed in CHO-K1 cells (Homo sapiens, UniProt P46095)
# T1 construct: expressed in transfected cells
# Test: Inhibition of cAMP Activity of GPR6 In Vitro Assay
# Type: cell-based
# Details: inhibition of constitutive cAMP activity of GPR6 in CHO-K1 cells, 45 min incubation, HTRF cAMP detection
# Procedure: Inhibition of cAMP Activity of GPR6 In Vitro Assay
# This cell based assay measures the ability of compounds to inhibit the constitutive cAMP activity of GPR6 receptor expressed in CHO-K1 cells. CHO cells were stably expressed with GPR6 receptor, whose expression is controlled by a tetracycline inducable element. The cells were cultured in medium containing F12K, 10% FBS, 1% Penn/Strep, 200 ug/mL Hygromycin. GPR6 receptor expression was induced for 20 hrs with 2 µg/ml doxycycline (sigma D9891) in growth media. After addition of doxycycline cells were plated at a density of 450-750 cells per well in 96-well half-volume black tissue culture plates (Costar) and placed in an incubator (37°, 5% CO2) for 20 hours prior to cAMP assays.
# Culture media was removed from cells and they were washed with 50 µL/well of Ringer's Buffer (MgCl2 0.047 mg/mL, NaH2PO4 0.18 mg/mL, Na2HPO4 0.1 mg/mL, KCl 0.34 mg/mL, NaHCO3 1.26 mg/mL, D-glucose 1.8 mg/mL, NaCl 7 mg/mL; pH=7.4). Compounds suspended in DMSO were diluted in Ringer's Buffer containing 0.5% fatty acid free BSA plus 300 μM IBMX and incubated on cells for 45 min at 37° and 5% CO2. After incubation cells were incubated for 10 min at room temp with Eu-cAMP tracer solution from a Perkin Elmer Lance HTRF Ultra cAMP assay kit (TRF0263). Then ULight™-anti-cAMP solution from the Lance HTRF kit was added and incubated on a shaker at room temp for 1 hour prior to HTRF detection in a Perkin Elmer Envision plate reader.
# IC50 curves were generated with a four-parameter logistic equation using GraphPad Prism 5.03.
# T1 sequence (P46095 whole entry): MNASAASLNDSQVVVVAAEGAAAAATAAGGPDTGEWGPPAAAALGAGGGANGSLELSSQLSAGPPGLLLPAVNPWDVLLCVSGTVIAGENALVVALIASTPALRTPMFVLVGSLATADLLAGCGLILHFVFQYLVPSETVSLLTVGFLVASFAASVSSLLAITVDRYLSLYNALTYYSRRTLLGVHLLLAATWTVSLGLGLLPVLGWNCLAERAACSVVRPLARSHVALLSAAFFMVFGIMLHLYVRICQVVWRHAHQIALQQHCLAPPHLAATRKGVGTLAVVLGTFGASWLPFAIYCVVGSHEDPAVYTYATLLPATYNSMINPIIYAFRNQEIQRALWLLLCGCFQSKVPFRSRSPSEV
row,SMILES,EC50
1,"Cc1cc2nc(N[C@H]3C[C@@H](O)C3)c(N3CCC(Oc4ccc(F)cc4F)CC3)nc2cn1 [Example 9, cis-3-((3-(4-(2,4-difluorophenoxy)piperidin-1-yl)-7-methylpyrido[3,4-b]pyrazin-2-yl)amino)cyclobutanol]",0.0523 µM
2,"Cc1cc2nc(N3CCC(Oc4ccc(F)cc4F)CC3)c(NC3CC3)nc2cn1 [Example 34, N-cyclopropyl-2-(4-(2,4-difluorophenoxy)piperidin-1-yl)-7-methylpyrido[3,4-b]pyrazin-3-amine]",0.0949 µM
3,"Cc1cc2nc(N3CCN(Cc4ccc(F)cc4F)CC3)c(NC(C)C)nc2cn1 [Example 30, 2-(4-(2,4-difluorobenzyl)piperazin-1-yl)-N-isopropyl-7-methylpyrido[3,4-b]pyrazin-3-amine 2,2,2-trifluoroacetate]",0.0801 µM
4,"Cc1cc2nc(N3CCC(Oc4ccc(OC(F)F)cc4F)CC3)c(NC3CC3)nc2cn1 [Example 39, N-cyclopropyl-2-(4-(4-(difluoromethoxy)-2-fluorophenoxy)piperidin-1-yl)-7-methylpyrido[3,4-b]pyrazin-3-amine]",> 5 µM
5,Cc1cc2nc(N[C@H]3CCOC3)c(N3CCN(Cc4ccc(F)cc4F)CC3)nc2cn1 [Example 3],0.0882 µM
6,"Cc1cc2nc(NC3CC3)c(N3CCC(Oc4ccc(OC(F)F)cc4F)CC3)nc2cn1 [Example 19, N-cyclopropyl-3-(4-(4-(difluoromethoxy)-2-fluorophenoxy)piperidin-1-yl)-7-methylpyrido[3,4-b]pyrazin-2-amine]",0.0626 µM
7,"Cc1cc2nc(N3CCN(Cc4ccc(F)cc4F)CC3)c(NC3COC3)nc2cn1 [Example 50, 2-(4-(2,4-difluorobenzyl)piperazin-1-yl)-7-methyl-N-(oxetan-3-yl)pyrido[3,4-b]pyrazin-3-amine]",0.164 µM
8,"Cc1cc2nc(NC(C)C)c(N3CCN(Cc4ccc(F)cc4F)CC3)nc2cn1 [Example 1, 3-(4-(2,4-difluorobenzyl)piperazin-1-yl)-N-isopropyl-7-methylpyrido[3,4-b]pyrazin-2-amine]",0.0594 µM
9,"Cc1cc2nc(N3CCC(Oc4ccc(OC(F)F)cc4F)CC3)c(N[C@@H]3CCOC3)nc2cn1 [Example 40, (R)-2-(4-(4-(difluoromethoxy)-2-fluorophenoxy)piperidin-1-yl)-7-methyl-N-(tetrahydrofuran-3-yl)pyrido[3,4-b]pyrazin-3-amine]",> 1 µM

# Next, values leading:
row,EC50,SMILES
1,0.0494 µM,"Cc1cc2nc(N[C@H]3C[C@H](F)C3)c(N3CCN(Cc4ccc(F)cc4F)CC3)nc2cn1 [Example 12, trans-3-(4-(2,4-difluorobenzyl)piperazin-1-yl)-N-(3-fluorocyclobutyl)-7-methylpyrido[3,4-b]pyrazin-2-amine]"
2,0.0482 µM,"Cc1cc2nc(N[C@H]3C[C@H](O)C3)c(N3CCC(Oc4ccc(F)cc4F)CC3)nc2cn1 [Example 13, trans-3-((3-(4-(2,4-difluorophenoxy)piperidin-1-yl)-7-methylpyrido[3,4-b]pyrazin-2-yl)amino)cyclobutanol]"
3,0.0373 µM,"COc1ccc(CN2CCN(c3nc4cnc(C)cc4nc3NC(C)C)CC2)c(F)c1 [Example 22, 3-(4-(2-fluoro-4-methoxybenzyl)piperazin-1-yl)-N-isopropyl-7-methylpyrido[3,4-b]pyrazin-2-amine]"
4,0.0301 µM,"Cc1cc2nc(N[C@@H]3CCOC3)c(N3CCC(Oc4ccc(F)cc4F)CC3)nc2cn1 [Example 5, (R)-3-(4-(2,4-difluorophenoxy)piperidin-1-yl)-7-methyl-N-(tetrahydrofuran-3-yl)pyrido[3,4-b]pyrazin-2-amine]"
5,0.0185 µM,"COc1ccc(OC2CCN(c3nc4cnc(C)cc4nc3NC3CC3)CC2)c(F)c1 [Example 8, N-cyclopropyl-3-(4-(2-fluoro-4-methoxyphenoxy)piperidin-1-yl)-7-methylpyrido[3,4-b]pyrazin-2-amine 2,2,2-trifluoroacetate]"
6,0.0165 µM,"Cc1cc2nc(NC(C)C)c(N3CCC(Oc4ccc(F)cc4F)CC3)nc2cn1 [Example 2, 3-(4-(2,4-difluorophenoxy)piperidin-1-yl)-N-isopropyl-7-methylpyrido[3,4-b]pyrazin-2-amine]"

# Tested on: Haloperidol-Induced Catalepsy
# Test: Haloperidol-Induced Catalepsy, In Vivo Rodent Parkinson's Disease Model
# Details: Rat, dose 1 mg/kg, sc
# From the text: Haloperidol-Induced Catalepsy—In Vivo Rodent Parkinson's Disease Model
# The motor symptoms of Parkinson's disease include akinesia, bradykinesia, rigidity, tremor and postural abnormalities and are associated with the loss of nigral dopaminergic cells and a decline in striatal dopamine levels. Administration of haloperidol to rodents leads to a transient parkinsonian-like state that is reversed by the administration of L-Dopa (Duty, S.; Jenner, P. Br. J. Pharmacol. (2011), 164, 1357-1391) and other drugs that have been clinically validated for the treatment of Parkinson's disease. Haloperidol antagonizes dopamine D2 and, to a lesser extent, D1 receptors in medium spiny neurons that comprise the indirect and direct pathways of the motor circuit respectively. The resultant block of striatal dopamine transmission results in abnormal downstream firing within the basal ganglia circuits that is manifest as symptoms of muscle rigidity and catalepsy. Catalepsy has been postulated to reflect the clinical features of Parkinson's disease, whereby patients experience an inability of to initiate movements.
# Male Sprague-Dawley rats (Charles River, Calco, Italy) weighing 175-200 g are used. Alternatively, male C57Bl6 mice weighing 25-35 g were used. The cataleptic state was induced by the subcutaneous administration of the dopamine receptor antagonist haloperidol (0.3 mg/kg, sc), 90 min before testing the animals on the vertical grid test. […] The time span from placement of the paws until the first complete removal of one paw (descent latency) was measured maximally for 120 sec for rats. For mice, the front paws of a mouse was placed on a horizontal metal bar raised 2″ above a Plexiglas platform and time was recorded for up to 30 seconds per trial. […]
# Catalepsy was measured 30 min, […], and/or […] after dosing the subjects a 1.0 mg/kg i.p. dose of haloperidol along with the GPR6 modulator test compound. Test compound plasma and brain levels were determined by collected tissue samples at the end of the experiment, which was either at the 120 or 240 min time point. […]
row,SMILES,% reversal at 90 min
1,"Cc1cc2nc(NC3CC3)c(N3CCN(Cc4ccc(F)cc4F)CC3)nc2cn1 [Example 7, N-cyclopropyl-3-(4-(2,4-difluorobenzyl)piperazin-1-yl)-7-methylpyrido[3,4-b]pyrazin-2-amine]",33.5%

# Same assay, conditions: Rat, dose 10 mg/kg, sc
row,SMILES,% reversal at 90 min
1,"Cc1cc2nc(NC3CC3)c(N3CCN(Cc4ccc(F)cc4F)CC3)nc2cn1 [Example 7, N-cyclopropyl-3-(4-(2,4-difluorobenzyl)piperazin-1-yl)-7-methylpyrido[3,4-b]pyrazin-2-amine]",63.6%

# Same assay, conditions: Rat, dose 30 mg/kg, sc
row,SMILES,% reversal at 90 min
1,"Cc1cc2nc(NC3CC3)c(N3CCN(Cc4ccc(F)cc4F)CC3)nc2cn1 [Example 7, N-cyclopropyl-3-(4-(2,4-difluorobenzyl)piperazin-1-yl)-7-methylpyrido[3,4-b]pyrazin-2-amine]",42.8%
